“Also recorded” adds a separate entry of the source.
What was measured:
[1] = target: T1, KRAS^G12V-GppNHp + scFv complex (Homo sapiens, UniProt P01116, G12V); assay: waterLOGSY NMR competition with anti-RAS scFv; type: binding
T1 construct: GST (N); made in house; host or cells: E. coli
Procedure: (§1) The waterLOGSY NMR method[35] was used to measure RAS ligand interaction. WaterLOGSY experiments were conducted at a ^1H frequency of 600 MHz using a Bruker Avance spectrometer equipped with a BBI probe. All experiments were conducted at 298 K, 3 mm diameter NMR tubes with a sample final volume of 200 µl was used in all experiments. Solutions were buffered using an H2O 10 mM PBS, 5 mM MgCl2 buffer corrected to pH 7.4. The sample preparation is exemplified as follows, the compound (10 µl of a […] solution in DMSO-d6) was added to an eppendorf before sequential addition of the H2O PBS buffer (163.6 µl), D2O (20 µl), and protein (6.4 µl, 311.8 µM). The resulting solution was spun to ensure full mixing and transferred to a 3 mm NMR tube before running the experiment. For a competition experiment using Y6-scFv or VH, the preparation was carried out in a similar manner; the compound (10 µl of a 10 mM solution in DMSO-d6) was added to an eppendorf before sequential addition of the H2O PBS buffer (146.4 µl), D2O (20 µl), protein (6.4 µl, 311.8 µM) and Y6-ScFv (17.2 µl, 116.6 µM) with a ratio of 5.5:1:1. The resulting solution was spun and transferred to a 3 mm NMR tube before the run. […]
(§2) Supplementary Figure 3: Abd-2 WaterLOGSY NMR with and without anti RAS-scFV Abd-2 was analyzed by waterLOGSY. […]

KRAS-GDP = assay: waterLOGSY NMR binding to GDP form
Procedure: as §1, §2

[2] = test system: ERK1/2 phosphorylation in DLD-1 cells (KRAS^G13D); assay: Biomarker phosphorylation assay, pERK, DLD-1; type: cell-based, human; details: DLD-1, 2-20 μM, 3 h, EGF 10 min
Procedure: Fig. 5 Abd-7 results on RAS-dependent signalling pathways and cell viability. a, b DLD-1 (a) or H358 (b) cells were serum-starved for 24 h, incubated in mono-layer with Abd-7 in a range from 2, 5, 10 and 20 μM for 3 h and stimulated with EGF 10 min. Proteins were extracted and separated by SDS-PAGE and transferred to membranes for Western analysis with anti-pAKT, anti-pERK, anti-pan AKT and anti-pan ERK. Anti-cyclophilin B antibody was the loading control. Signal was developed using standard ECL. c–e Effects of compounds Abd-2, Abd-4, Abd-5, Abd-6, and Abd-7 on the viability of human cancer cells lines was assessed for a 2-D culture of DLD-1 (mutant KRAS^G13D) cells and HT1080 cells (mutant NRAS^Q61K). The cells were treated with a dose range from 0 μM to 20 μ and incubated for 72 h when cell viability was assessed using CellTitreGlo. […] Each experiment was repeated at least three times (a, b) and four times (c, d). Where error bars are presented, they correspond to mean values ± SD of biological repeats
A total of 450,000 DLD1 or 640,000 H358 cells were seeded per well of a six well plate. Approximately, 20 h later, the medium was removed, the cells washed twice with PBS and DMEM without FBS was added and left for 24 h. […] Cell lysates were sonicated with a Branson Sonifier and the protein concentrations determined by using the Pierce BCA protein assay kit (Thermo-Fisher). […]

binding to KRAS-GDP (waterLOGSY) (KRAS-GDP) | Compound | binding to KRAS^G12V-GppNHp in the presence of anti-RAS scFv (waterLOGSY) [1] | inhibition of ERK1/2 phosphorylation [2]
poor binding | O=C(NCC1COc2ccccc2O1)c1ccco1 (stereo not drawn) [Abd-2] | no longer binds; also recorded: no binding | 
 | COc1nc(-c2cccc3c2OCCO3)ccc1Nc1ccc(CN(C)C)cc1 [Abd-7] |  | diminution of pERK levels

— paper PMC6085350, “Small molecule inhibitors of RAS-effector protein interactions derived using an intracellular antibody fragment” (Nature Communications, 2018)
